Assay results taken from patent US12503426B2, “Synthetic derivatives of oleoyl-lysophosphatidylinositol (oleoyl-LPI) and uses thereof” (LIPOVEXA SRL, priority 2017, dated 2025).

What was measured:
NCI-H716 cells = test: GLP-1 secretion by NCI-H716 cells (Examples 2-8); format: cell-based, human; conditions: 2 hours
Protocol: NCI-H716 cells were maintained in 75 cm^2 tissue culture flasks (Corning) in RPMI 1640 media containing 2.0 mM L-glutamine, 1.5 g/L sodium bicarbonate, 10 mM HEPES buffer, 1.0 mM sodium pyruvate, and 4.5 g/L glucose and supplemented with 10% FBS at a 37° C. and 5% CO2. When plating for experiment, cell adhesion and endocrine differentiation were initiated by growing cells in dishes coated with growth factor reduced Matrigel diluted at the ratio of 1:2 (Becton Dickinson, Bedford, MA) in high-glucose DMEM, 10% FBS, 2 mM glutamine, 100 IU/ml penicillin, and 100 μg/ml streptomycin as described previously by De Bruine, a P., Dinjens, W. N., van der Linden, E. P., Pijls, M. M., Moerkerk, P. T., & Bosman, F. T. (1993) The American Journal of Pathology, Vol 142(3), pp 773-782, the disclosure of which is incorporated herein in its entirety by reference.
(§1) Approximately 80,000 Glutag cells were plated in poly-L-lysine-coated 24-well culture plates and grown to about 80% confluence. NCI-H716 cells were seeded on growth factor reduced Matrigel™ (Becton Dickinson, Bedford, MA) in DMEM medium, supplemented with 10% FBS the day before the experiment. For NCI-H716 cells, approximately 25,000 cells were needed for this secretion experiment in order to have good stimulation with lower basal GLP-1 secretion. In brief, Glutag and NCI-H716 cells were washed twice and then incubated for 2 h with FBS-free DMEM containing 1% (M:C) alone (negative control), 10 μM forskolin as positive control (Sigma-Aldrich), or with different concentrations of Oleoyl-LPI. M:C was used as a solvent to prepare stock solutions of fatty acid derivatives and inhibitors. For secretion experiments, medium and cells were collected separately.
In separate studies, GLUTag or NCI-H716 cells were pre-treated for 1 hour with medium alone (1% DMSO, negative control), PD98059 (50 μM; Sigma Chemical Co.), H89 (10 μM; Santa Cruz) followed by treatment with oleoyl-LPI (20 μM), OEA (10 μM), AR231453(1 μM), PMA (10 μM) or forskolin (10 μM, positive control) in the presence of inhibitors, as appropriate, for about 2 h. Medium GLP-1 secretion was calculated as total GLP-1 content of medium normalised for the basal secretion of the control.
In order to investigate the role of different LPI species in enteroendocrine cells, murine (Glutag) and human (NCI-H716) L-cells were stimulated with the following different species of LPI: Arachidonyl-LPI, Stearoyl-LPI, Heptadecenoyl-LPI and oleoyl-LPI, as well as with OEA and LPC. Experiments were performed in duplicate, n=4 and the level of total GLP-1 was measured by ELISA.

human GPR119 = molecular target: T1, human GPR119 (Homo sapiens, UniProt Q8TDV5); test: cAMP assay in GPR119 transfected COS-7 cells; format: cell-based; conditions: COS-7 cells expressing human GPR119, agonists 30 min; read-out: EC50, production of cAMP
T1 construct: expressed in transfected cells; host or cells: COS-7 cells, calcium phosphate transfection
T1 sequence (Q8TDV5 1-335): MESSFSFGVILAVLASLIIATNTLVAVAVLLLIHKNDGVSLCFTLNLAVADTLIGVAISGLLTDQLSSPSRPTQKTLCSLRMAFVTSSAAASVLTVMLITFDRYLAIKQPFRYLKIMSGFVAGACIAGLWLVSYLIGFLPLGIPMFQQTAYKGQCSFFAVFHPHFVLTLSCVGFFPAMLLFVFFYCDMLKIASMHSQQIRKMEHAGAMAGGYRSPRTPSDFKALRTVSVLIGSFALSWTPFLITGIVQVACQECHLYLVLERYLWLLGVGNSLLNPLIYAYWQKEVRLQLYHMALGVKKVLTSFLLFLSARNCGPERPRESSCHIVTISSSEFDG
Protocol: COS-7 cells were cultured in Dulbecco's modified Eagle medium (DMEM) 1885 supplemented with 10% FBS, […] L-glutamine and 180 IU/ml penicillin+[…] streptomycin (Pen Strep) (Life Technologies, CA, USA) at 37° C. and 10% CO2. The COS-7 cells were transiently transfected with GPR119 or pcDNA by the calcium phosphate transfection method for 5 hours in 37° C., 10% CO2 as described by Kissow H, Hartmann B, Hoist J J, Viby N E, Hansen L S, Rosenkilde M M, Hare K J, Poulsen S S. Regul Pept. 2012. Vol: 179(1-3), pp 91-100; the disclosure of which is incorporated herein in its entirety by way of reference.
COS-7 cells were transfected with about 40 μg GPR119 DNA or pcDNA3 per […] flask. One day after transfection, the cells were seeded out (about 35,000 cell/well) in a 96 well white plate (Perkin Elmer, Massachusetts, USA). The cells were washed twice the following day and incubated for 30 min, at 37° C. with HBS and 1 mM IBMX (Sigma Aldrich, USA). Agonists were added for 30 min in the assay medium. The Hithunter® cAMP XS+ (DiscoveRx, Fremont, USA) was carried out by following the manufacturer's instructions.
Accordingly, the work outlined in this example evaluates whether activation of GPR119 by oleoyl-LPI in enteroendocrine L cell affect the proglucagon gene expression by monitoring the CREB activity. […]

[1] = test system: Glutag and NCI-H761 cells; test: Dose response of GLP-1 release at different glucose concentrations; format: cell-based; conditions: 5 mM glucose, 2 hours, percentage of vehicle control
Protocol: Panels A and B show results of dose response of GLP-1 release in different glucose concentration of 5 mM (panel A) and 10 mM (panel B). The dose response of GLP-1 released was normalised of number of cells measured in parallel. Glutag and […] cells were incubated with vehicle alone, oleoyl-LPI, OEA, LPC forskolin (10 μM) and PMA (1 μM) as positive control for 2 hours. Results were normalised as percentage of cell treated with vehicle (control). For panels A and B data are shown as means±SEM of n=3 from independent experiments performed in duplicates. Student t-test: *p<0.05, **P<0.01. Panel C show results of dose response of GLP-1 release in a glucose concentration of 20 mM.
as §1
To determine the effect of glucose in oleoyl-LPI induced GLP-1 secretion, the inventors conducted dose-response experiment in the presence of 5 mM and 10 mM glucose in the secretion medium with the results outlined in FIG. 2A and FIG. 2B.

## oleoyl-lysophosphatidylinositol [oleoyl-LPI]
NCI-H716 cells; NCI-H716 cells, normalised as percentage of cells treated with vehicle (control)
  GLP-1 secretion: 124±7.4%
NCI-H716 cells; siGPR55 transfected NCI-H716 cells, oleoyl-LPI 20 μM
  effect of down-regulation of GPR55 on GLP-1 secretion: no effect on GLP-1 secretion
NCI-H716 cells; siGPR119 transfected NCI-H716 cells, oleoyl-LPI 20 μM
  GLP-1 secretion in siGPR119-transfected cells: significantly reduced the GLP-1 secretion to the basal level
Human GPR119
  EC50: 239 nM
[1]; 10 μM
  GLP-1 secretion: 126±8%
[1]; 20 μM
  GLP-1 secretion: 223±23%
[1]; 50 μM
  GLP-1 secretion: 333±45%
